The text below walks through data of patent publication US4442106A, “Quinoline derivatives, pharmaceutical compositions containing such compounds, and methods of treating cardiovascular conditions with them” (ACF Chemiefarma N.V., priority 1980, dated 1984).

Read-outs that look alike come from different tables or passages of the source.

Assay [1] has as its system spontaneously hypertensive rats. As to the kind of experiment: Effectiveness in spontaneously hypertensive rats: systolic blood pressure by tail cuff method. Type of assay: in vivo. The note with it: Rattus norvegicus, read-out: Change of systolic blood-pressures. The method, then: Experiment 1-Effectiveness of the compounds of Examples in spontaneously hypertensive rats
Systolic blood pressures were recorded by a modification of the tail cuff method described by I.M. Claxton et al., Eur. J.Pharmacology 37, 179 (1976). An oscilloscope or W+W BP recorder, model 8002, was used to display pulses.
Prior to all measurements rats were placed in a heated environment (33.5±0.5° C.) before transfer to a restraining cage. Each determination of blood pressure was the mean of at least 6 readings.
Spontaneously hypertensive rats (aged 12-18 weeks) with systolic blood pressures >170 mm Hg were considered hypertensive.
In the following table the results with certain compounds of the invention, which have been carried out with the above-described method, are mentioned. The numbers of the compounds correspond with those of the Examples.

Assay [2] has as its system right ventricle of the heart. Description: Guinea Pigs Electrostimulation Test (arrhythmias by electrostimulation of the right ventricle of the heart). In kind it is in vivo. The note with it: Cavia porcellus, 0.5 h, 30 minutes before stimulation, read-out: Percent increase in voltage required for arrhythmia; for change in vivo at 32 mg/kg: standard dose 32 mg/kg intraduodenal. The method, then: Experiment 2-Effectiveness of the compounds of Examples in the Guinea Pigs Electrostimulation Test
Arrhythmias are induced in guinea pigs by electrostimulation of the right ventricle of the heart. The animals are anaesthesized with urethane (1.2 g/kg i.p.) and artificially respirated before a needle electrode is inserted in the right ventricle of the heart. Substances are given intraduodinally 30 minutes before the stimulation at a standard dose of 32 mg/kg. In some cases a different dose was used as indicated.
The voltage needed for induction of extra systoles in control animals (n=6) is compared with that required for induction of arrhythmias in treated animals (n=6).
This method is based on the work of L. Szekeres and G. J. Papp, Naunyn-Schmiedebergs Arch. Exp. Path. Pharmak., 245, 70 (1963).
In the table the results of certain compounds of the invention are mentioned, which have been carried out according to the method described above.
The numbers of the compounds correspond with those of the Examples.

`CC[C@H]1CN(CCCC(=O)c2ccccc2)CC[C@H]1CCC(=O)c1cc(C)nc2ccccc12` [Compound 25, N-(3-benzoylpropyl)-2'-methyl-hydrocinchonicine.bifumarate]: the change in vivo at 100 mg/kg in assay [1] (1 h) was -16%; in assay [1] (2 h) it was -25%; in assay [1] (4 h), -9%; in assay [1] (6 h) it was -5%; in assay [1] (24 h), 2%. In assay [2], the change in vivo at 32 mg/kg was 5%.

With `CCCCCN1CC[C@@H](CCC(=O)c2cc(C)nc3ccccc23)[C@@H](CC)C1` [Compound 27], the change in vivo at 100 mg/kg in assay [1] (1 h) was -1%; in assay [1] (2 h), -13%; in assay [1] (4 h), -28%; in assay [1] (6 h), -16%; in assay [1] (24 h) it was -3%. In addition, the change in vivo at 32 mg/kg in assay [2] was -2%.

For `C=C[C@H]1CN(CCCC(=O)c2ccc(F)cc2)CC[C@H]1CCC(=O)c1cc(C)nc2ccccc12` [Compound 28], the change in vivo at 10 mg/kg in assay [1] (1 h) was -5%; in assay [1] (2 h), -2%; in assay [1] (4 h), -10%; in assay [1] (6 h) it was -11%; in assay [1] (24 h), 5%.

Regarding `CCCN1CC[C@@H](CCC(=O)c2cc(C)nc3ccc(OC)cc23)[C@@H](CC)C1` [Compound 29], the change in vivo at 100 mg/kg in assay [1] (1 h) is -10%; in assay [1] (2 h), -27%; in assay [1] (4 h), -18%; in assay [1] (6 h), -22%; in assay [1] (24 h), 0%. Moreover, the change in vivo at 16 mg/kg in assay [2] (intraduodenal) amounted to 9%.

Take `CCCc1cc(C(=O)CC[C@@H]2CCN(CCC)C[C@@H]2CC)c2ccccc2n1` [Compound 30, N-propyl-2'-propyl-hydrocinchonicine]: in assay [2] (intraduodenal), the change in vivo at 8 mg/kg came to 60%.

Regarding `CCCCCN1CC[C@@H](CCC(=O)c2cc(CCC)nc3ccccc23)[C@@H](CC)C1` [Compound 31, N-pentyl-2'-propyl-hydrocinchonicine], the change in vivo at 32 mg/kg in assay [2] is 31%.

On to `CCCc1cc(C(=O)CC[C@@H]2CCN(CCCC(=O)c3ccccc3)C[C@@H]2CC)c2ccccc2n1` [Compound 32, N-(3-benzoylpropyl)-2'-propyl-hydrocinchonicine], for which the change in vivo at 10 mg/kg in assay [1] (1 h) is -4%; in assay [1] (2 h), -11%; in assay [1] (4 h) it was -8%; in assay [1] (6 h), -22%; in assay [1] (24 h), -3%. Besides, the change in vivo at 32 mg/kg in assay [2] was determined as 52%.

Take `CC[C@H]1CN(CC(C)(C)O)CC[C@H]1CCC(=O)c1cc(C(C)C)nc2ccccc12` [Compound 36, N-(2-hydroxy-2-methylpropyl)-2'-isopropylhydrocinchonicine.bioxalate]: the change in vivo at 32 mg/kg in assay [2] was determined as 91%.

Regarding `CCCN1CC[C@@H](CCC(O)c2cc(C)nc3ccc(OC)cc23)[C@@H](CC)C1` (stereo partly shown) [Compound 40, N-propyl-2'-methyl-hydroquinicinol-1], in assay [2] (intraduodenal), the change in vivo at 16 mg/kg came to 44%.

`CCCc1cc(C(O)CC[C@@H]2CCN(CCC)C[C@@H]2CC)c2cc(OC)ccc2n1` (stereo partly shown) [Compound 42, N-propyl-2'-propyl-hydroquinicinol-1]: in assay [2] (intraduodenal), the change in vivo at 16 mg/kg is 74%.

With `CCCCCN1CC[C@@H](CCCc2cc(C)nc3ccccc23)[C@@H](CC)C1` [Compound 44, N-pentyl-2'-methyl-desoxo-hydrocinchonicine], the change in vivo at 100 mg/kg in assay [1] (1 h) is 2%; in assay [1] (2 h), -15%; in assay [1] (4 h) it was -30%; in assay [1] (6 h), -43%; in assay [1] (24 h), -6%.

For `CC[C@H]1CN(CCCC(=O)c2ccccc2)CC[C@H]1CCCc1cc(C)nc2ccccc12` [Compound 45, N-(3-benzoylpropyl)-2'-methyl-desoxo-hydrocinchonicine], the change in vivo at 10 mg/kg is -14% in assay [1] (1 h); -6% in assay [1] (2 h); -14% in assay [1] (4 h); -21% in assay [1] (6 h); -2% in assay [1] (24 h).

On to `CC[C@H]1CN(CCCC(=O)c2ccc(F)cc2)CC[C@H]1CCCc1cc(C)nc2ccccc12` [Compound 46, N-[3-(4-fluorobenzoyl)propyl]-2'-methyl-desoxo-hydrocinchonicine], for which the change in vivo at 10 mg/kg in assay [1] (1 h) was -22%; in assay [1] (2 h), -24%; in assay [1] (4 h) it was -20%; in assay [1] (6 h), -20%; in assay [1] (24 h) it was -1%.

Turning to `CC[C@H]1CN(CCCC(=O)c2ccc(F)cc2)CC[C@H]1CCCc1cc(C)nc2ccc(OCCC(C)C)cc12` [Compound 47, N-[3-(4-fluorobenzoyl)propyl]-2'methyl-6'-isopentoxy-oxy-desoxo-hydrocinchonicine], the change in vivo at 10 mg/kg in assay [1] (1 h) is -26%; in assay [1] (2 h) it was -21%; in assay [1] (4 h) it was -30%; in assay [1] (6 h), -22%; in assay [1] (24 h), 0%.

With `CCCN1CC[C@@H](CCCc2cc(O)nc3ccccc23)[C@@H](CC)C1` [Compound 48], in assay [2] (intraduodenal), the change in vivo at 16 mg/kg amounted to 19%.

For `CCCN1CC[C@@H](CCCc2cc(O)nc3ccc(OC)cc23)[C@@H](CC)C1` [Compound 49], the change in vivo at 16 mg/kg in assay [2] (intraduodenal) was 21%.

Take `CC[C@H]1CN(CCCC(=O)c2ccc(F)cc2)CC[C@H]1CCCc1cc(C(F)(F)F)nc2ccccc12` [Compound 50]: the change in vivo at 10 mg/kg in assay [1] (1 h) is -4%; in assay [1] (2 h) it was -16%; in assay [1] (4 h), -16%; in assay [1] (6 h), -13%.

With `CC[C@H]1CN(C)CC[C@H]1CCC(=O)c1cc(OC)nc2ccccc12` [Compound 52, 2'-Methoxy-N-methyl-hydrocinchonicine.bioxalate], the change in vivo at 8 mg/kg in assay [2] (intraduodenal) was 25%.

Regarding `CC[C@H]1CN(CCCC(c2ccc(F)cc2)c2ccc(F)cc2)CC[C@H]1CC(O)Cc1cc(OC)nc2ccccc12` (stereo partly shown) [Compound 55], the change in vivo at 10 mg/kg is -11% in assay [1] (1 h); -5% in assay [1] (2 h); -7% in assay [1] (4 h); -10% in assay [1] (6 h); -2% in assay [1] (24 h).

As to `CCCN1CC[C@@H](CC(O)Cc2cc(OC)nc3ccc(OC)cc23)[C@@H](CC)C1` (stereo partly shown) [Compound 56], the change in vivo at 20 mg/kg in assay [2] (at 20 mg/kg, intraduodenal) was 112%.

With `CCCN1CC[C@@H](CC(O)Cc2cc(C(F)(F)F)nc3ccccc23)[C@@H](CC)C1` (stereo partly shown) [Compound 58, N-propyl-2'-trifluoromethyl-hydrocinchonicinol-2], the change in vivo at 10 mg/kg in assay [2] (at 10 mg/kg, intraduodenal) came out at 133%.

With `CCCN1CC[C@@H](CC(O)Cc2cc(C(F)(F)F)nc3ccccc23)[C@@H](CC)C1` (stereo partly drawn) [Compound 59, 1-(2-trifluoromethyl-4-quinolyl)-3-[3(R)-ethyl-N-propyl-4(S)-piperidyl]-propanol-2], the change in vivo at 4 mg/kg in assay [2] (at 4 mg/kg, intraduodenal) worked out at 55%.

In the case of `CCCN1CC[C@@H](CC(O)Cc2cc(C(F)(F)F)nc3ccccc23)[C@@H](CC)C1` (stereo partly shown) [Compound 60, N-propyl-2'-trifluoromethyl-hydrocinchonicinol-2], in assay [2] (intraduodenal), the change in vivo at 8 mg/kg stood at 137%.

Turning to `CCCCCN1CC[C@@H](CC(=O)Cc2cc(C(F)(F)F)nc3ccccc23)[C@@H](CC)C1` [Compound 64, 1-(2-Trifluoromethyl-4-quinolyl)-3-[3(R)-ethyl-N-pentyl-4(S)-piperidyl]-propanone-2.bifumarate], the change in vivo at 100 mg/kg in assay [1] (1 h) was -5%; in assay [1] (2 h), -23%; in assay [1] (4 h), -17%; in assay [1] (6 h), -13%; in assay [1] (24 h), -8%.

As for `CC[C@H]1CN(CC(C)(C)O)CC[C@H]1CCC(=NOC)c1cc(C)nc2ccccc12` [Compound 66, N-(2-Hydroxy-2-methylpropyl)-2'-methyl-hydrocinchonicine-O-methyl oxime ether.bioxalate], the change in vivo at 16 mg/kg in assay [2] (intraduodenal) was determined as 43%.
